Target: T1, HsRAD51 (Homo sapiens, UniProt Q06609)
T1 sequence (Q06609 2-339): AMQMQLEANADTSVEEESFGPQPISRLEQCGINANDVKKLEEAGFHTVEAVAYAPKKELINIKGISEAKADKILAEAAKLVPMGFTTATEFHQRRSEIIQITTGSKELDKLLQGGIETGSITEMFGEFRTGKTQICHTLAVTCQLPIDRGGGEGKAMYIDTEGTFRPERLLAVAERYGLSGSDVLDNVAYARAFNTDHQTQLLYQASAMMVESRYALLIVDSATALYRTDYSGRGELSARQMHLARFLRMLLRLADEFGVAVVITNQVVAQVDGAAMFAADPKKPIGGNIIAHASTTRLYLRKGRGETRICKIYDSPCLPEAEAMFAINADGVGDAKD
Assay: LC-MS/MS of the covalent adduct at C319
Format: binding

Compound: O=C1C(Cl)=C(N2CCOCC2)C(=O)N1c1ccc(Cl)c(Cl)c1 [RI-1, 3-chloro-1-(3,4-dichlorophenyl)-4-(4-morpholinyl)-1H-pyrrole-2,5-dione]
- IC50: 5 to 30 µM
